Data from PubChem BioAssay AID1259411 (Chemical Carcinogenesis Research Information System (CCRIS), 2018).
Activity calls are given as the source filed them. How the calls were made is not given here.

Tested on: rodent carcinogenicity bioassays, tumor incidence
Experiment: CCRIS carcinogenicity studies
Method in brief: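 NCI-built, expert-reviewed records of carcinogenicity and related test outcomes (mutagenicity, tumor promotion/inhibition) compiled from published and report sources, historical span 1985-2011, not updated.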

Structure (SMILES): CO/N=C(/C1=NOCCO1)c1ccccc1Oc1ncnc(Oc2ccccc2Cl)c1F
- carcinogen call (Species: Mouse, Strain/Sex: CD-1/Female (50/Group), Route: Oral, Dose: 0, 29.5, 204.0, 1265.1 mg/kg/day of 94.3% - 94.5% fluoxastrobin in diet for 18 mo, study duration 18 mo, Dose: 0, 29.5, 204.0, 1265.1 mg/kg/day of 94.3% - 94.5% fluoxastrobin in diet for 18 mo, study duration 18 mo): inactive; negative
- carcinogen call (Species: Mouse, Strain/Sex: CD-1/Male (50/Group), Route: Oral, Dose: 0, 18.6, 135.4, 775.6 mg/kg/day of 94.3% - 94.5% fluoxastrobin in diet for 18 mo, study duration 18 mo, Dose: 0, 18.6, 135.4, 775.6 mg/kg/day of 94.3% - 94.5% fluoxastrobin in diet for 18 mo, study duration 18 mo): inactive; negative
- carcinogen call (Species: Rat, Strain/Sex: Wistar/Female (50/Group), Route: Oral, Dose: 0, 6.9, 35.2, 181.3, 1083.2 mg/kg/day of 94.3-94.6% fluoxastrobin in diet for 2 yr, study duration 2 yr, Dose: 0, 6.9, 35.2, 181.3, 1083.2 mg/kg/day of 94.3-94.6% fluoxastrobin in diet for 2 yr, study duration 2 yr, Tumor Site: Type of Lesion: Uterus: adenocarcinoma (highest dose only)): active; positive
- carcinogen call (Species: Rat, Strain/Sex: Wistar/Male (50/Group), Route: Oral, Dose: 0, 2.1, 5.2, 53.0, 271.9 mg/kg/day of 94.3-94.6% fluoxastrobin in diet for 2 yr, study duration 2 yr, Dose: 0, 2.1, 5.2, 53.0, 271.9 mg/kg/day of 94.3-94.6% fluoxastrobin in diet for 2 yr, study duration 2 yr): inactive; negative

Structure (SMILES): C[N+](C)(C)NCCC(=O)[O-]
- carcinogen call (Species: MOUSE, Strain/Sex: B6D2F1/FEMALE, Route: GAVAGE, Dose: 0, 400, 4000 MG/KG BW IN 0.2 ML WATER 3X/WK FOR 22 MONTHS (STUDY DURATION: 22 MONTHS), Dose: 0, 400, 4000 MG/KG BW IN 0.2 ML WATER 3X/WK FOR 22 MONTHS (STUDY DURATION: 22 MONTHS)): inactive; negative
- carcinogen call (Species: MOUSE, Strain/Sex: C3H/FEMALE, Route: ORAL, Dose: 0, 0.1% IN DRINKING WATER FOR LIFETIME (STUDY DURATION: LIFETIME)): inactive; negative
- carcinogen call (Species: MOUSE, Strain/Sex: SHR/FEMALE, Route: SUBCUTANEOUS, Dose: 0, 0.1 MG IN ISOTONIC SALINE 1X/D FOR 5 D WITH 4-WK INTERVALS FOR LIFETIME (STUDY DURATION: LIFETIME)): inactive; negative

Structure (SMILES): Cn1c([N+](=O)[O-])cnc1C1=NOC2CCCCC12 (centres undefined)
- carcinogen call (Species: MOUSE, Strain/Sex: SWISS/FEMALE, Route: INTRAPERITONEAL, Dose: 0, 80 UG/G BW 1/D FOR 30 DAYS (STUDY DURATION: LIFETIME), Tumor Site: Type of Lesion: LYMPHATIC SYSTEM: LYMPHOMA): active; positive

Structure (SMILES): O=C([O-])CN(CC(=O)[O-])CC(=O)[O-].[Cu+2]
- carcinogen call (Species: RAT, Strain/Sex: WISTAR/MALE, Route: INTRAPERITONEAL, Tumor Site: Type of Lesion: KIDNEY: RENAL CELL CARCINOMA): active; positive

Structure (SMILES): Cc1c(N)cccc1N
- carcinogen call (Species: MOUSE, Strain/Sex: B6C3F1/FEMALE, Route: ORAL, Dose: 0, 50, 100 PPM IN DIET, Dose: 0, 50, 100 PPM IN DIET): inactive; negative
- carcinogen call (Species: MOUSE, Strain/Sex: B6C3F1/MALE, Route: ORAL, Dose: 0, 50, 100 PPM IN DIET, Dose: 0, 50, 100 PPM IN DIET): inactive; negative
- carcinogen call (Species: RAT, Strain/Sex: F344/FEMALE, Route: ORAL, Dose: 0, 250, 500 PPM IN DIET, Dose: 0, 250, 500 PPM IN DIET): inactive; negative
- carcinogen call (Species: RAT, Strain/Sex: F344/MALE, Route: ORAL, Dose: 0, 250, 500 PPM IN DIET, Dose: 0, 250, 500 PPM IN DIET): inactive; negative

Structure (SMILES): c1ccc2[nH]c(-c3cscn3)nc2c1
- carcinogen call (Species: MOUSE, Strain/Sex: CD-1/FEMALE, Route: ORAL, Dose: 0, 0.031, 0.125, 0.5% IN DIET FOR 78 WK (STUDY DURATION: 78 WK), Dose: 0, 0.031, 0.125, 0.5% IN DIET FOR 78 WK (STUDY DURATION: 78 WK)): inactive; negative
- carcinogen call (Species: MOUSE, Strain/Sex: CD-1/MALE, Route: ORAL, Dose: 0, 0.031, 0.125, 0.5% IN DIET FOR 78 WK (STUDY DURATION: 78 WK), Dose: 0, 0.031, 0.125, 0.5% IN DIET FOR 78 WK (STUDY DURATION: 78 WK)): inactive; negative
- carcinogen call (Species: MOUSE, Strain/Sex: ICR/MALE, Route: ORAL, Dose: 0, 0.8, 1.2, 1.6% IN DIET FOR 44 WK (STUDY DURATION: 44 WK), Dose: 0, 0.8, 1.2, 1.6% IN DIET FOR 44 WK (STUDY DURATION: 44 WK)): inactive; negative
- carcinogen call (Species: RAT, Strain/Sex: F344/FEMALE, Route: ORAL, Dose: 0, 0.05, 0.1, 0.2, 0.4% IN DIET FOR 104 WK (STUDY DURATION: 104 WK), Dose: 0, 0.05, 0.1, 0.2, 0.4% IN DIET FOR 104 WK (STUDY DURATION: 104 WK)): inactive; negative
- carcinogen call (Species: RAT, Strain/Sex: F344/MALE, Route: ORAL, Dose: 0, 0.05, 0.1, 0.2, 0.4% IN DIET FOR 104 WK (STUDY DURATION: 104 WK), Dose: 0, 0.05, 0.1, 0.2, 0.4% IN DIET FOR 104 WK (STUDY DURATION: 104 WK)): inactive; negative

Structure (SMILES): Nc1ccccc1
- carcinogen call (Species: MOUSE, Strain/Sex: B6C3F1/FEMALE, Route: ORAL, Dose: 0, 0.6, 1.2% OF DIET, Dose: 0, 0.6, 1.2% OF DIET): inactive; negative
- carcinogen call (Species: MOUSE, Strain/Sex: B6C3F1/MALE, Route: INTRAPERITONEAL, Dose: 0, 0.15 UMOL/G ONCE IN SODIUM ACETATE BUFFER (STUDY DURATION: 10 MO)): inactive; negative
- carcinogen call (Species: MOUSE, Strain/Sex: B6C3F1/MALE, Route: ORAL, Dose: 0, 0.6, 1.2% OF DIET, Dose: 0, 0.6, 1.2% OF DIET): inactive; negative
- carcinogen call (Species: RAT, Strain/Sex: F344/FEMALE, Route: ORAL, Dose: 0, 0.3, 0.6% OF DIET, Dose: 0, 0.3, 0.6% OF DIET, Tumor Site: Type of Lesion: SPLEEN OR BODY CAVITIES (BOTH PLEURAL AND PERITONEAL): FIBROSARCOMA OR SARCOMA, NOS): active; positive
- carcinogen call (Species: RAT, Strain/Sex: F344/FEMALE, Route: ORAL, Dose: 0, 3000, 6000 PPM IN DIET FOR 103 WK (STUDY DURATION: 108 WK), Dose: 0, 3000, 6000 PPM IN DIET FOR 103 WK (STUDY DURATION: 108 WK), Tumor Site: Type of Lesion: SPLEEN OR PERITONEUM: SARCOMA): active; positive
- carcinogen call (Species: RAT, Strain/Sex: F344/MALE, Route: ORAL, Dose: 0, 0.3, 0.6% OF DIET, Dose: 0, 0.3, 0.6% OF DIET, Tumor Site: Type of Lesion: SPLEEN AND BODY CAVITIES (BOTH PLEURAL AND PERITONEAL): FIBROSARCOMA OR SARCOMA, NOS, HEMANGIOSARCOMA): active; positive
- carcinogen call (Species: RAT, Strain/Sex: F344/MALE, Route: ORAL, Dose: 0, 3000, 6000 PPM IN DIET FOR 103 WK (STUDY DURATION: 108 WK), Dose: 0, 3000, 6000 PPM IN DIET FOR 103 WK (STUDY DURATION: 108 WK), Tumor Site: Type of Lesion: SPLEEN OR PERITONEUM: SARCOMA): active; positive

Structure (SMILES): CCOC(=O)C(O)(c1ccc(Cl)cc1)c1ccc(Cl)cc1
- carcinogen call (Species: MOUSE, Strain/Sex: B6C3F1/FEMALE, Route: ORAL, Dose: 0, 3200, 5908 PPM IN DIET FOR 78 WK (STUDY DURATION: 90-91 WK), Dose: 0, 3200, 5908 PPM IN DIET FOR 78 WK (STUDY DURATION: 90-91 WK), Tumor Site: Type of Lesion: LIVER: HEPATOCELLULAR CARCINOMA): active; positive
- carcinogen call (Species: MOUSE, Strain/Sex: B6C3F1/MALE, Route: ORAL, Dose: 0, 4231, 7846 PPM IN DIET FOR 78 WK (STUDY DURATION: 90-91 WK), Dose: 0, 4231, 7846 PPM IN DIET FOR 78 WK (STUDY DURATION: 90-91 WK), Tumor Site: Type of Lesion: LIVER: HEPATOCELLULAR CARCINOMA): active; positive
- carcinogen call (Species: RAT, Strain/Sex: OSBORNE-MENDEL/FEMALE, Route: ORAL, Dose: 0, 1175, 2229 PPM IN DIET FOR 78 WK (STUDY DURATION: 110-111 WK), Dose: 0, 1175, 2229 PPM IN DIET FOR 78 WK (STUDY DURATION: 110-111 WK), Tumor Site: Type of Lesion: ADRENAL GLAND: CORTICAL ADENOMA): equivocal
- carcinogen call (Species: RAT, Strain/Sex: OSBORNE-MENDEL/MALE, Route: ORAL, Dose: 0, 1600, 2995 PPM IN DIET FOR 78 WK (STUDY DURATION: 110-111 WK), Dose: 0, 1600, 2995 PPM IN DIET FOR 78 WK (STUDY DURATION: 110-111 WK), Tumor Site: Type of Lesion: ADRENAL GLAND: CORTICAL ADENOMA): equivocal
